Measurements reported in patent US12441693B2, “Targeting STAT sumoylation to enhance immune responses” (THE GEORGE WASHINGTON UNIVERSITY, priority 2018, dated 2025).

Experiments:
[1] = tested on: STAT5 transcriptional activity; assay: Primary cell screening assay (CD69 expression, STAT5 transcriptional activity); assay type: cell-based; details: primary human CD4 T cells
Experimental: It was observed that the ability of different benzotriazole and benzotriazin derivatives to increase STAT5 phosphorylation correlated with the ability of the compounds to induce the expression of CD69 (a STAT5 target gene) (FIG. 2A) but not CD25 (FIG. 2B) in the surface of human CD4 T cells. Based on these findings, a primary cell screening assay was set up according to FIG. 2C to identify derivatives with similar activity. As an example, flow cytometry was performed to isolated activated cells (FIG. 2D), which were expanded in the presence of DMSO or a compound of interest (FIG. 2E), and screened for changes in the expression of CD69 (FIG. 2F).

STAT5 = biological target: T1, STAT5 (Homo sapiens, UniProt P42229); assay: Cellular thermal shift assay (CETSA) in 293FT-STAT5A cell lysates; assay type: binding
T1 construct: expressed in transfected cells; host or cells: 293FT HEK cells expressing STAT5A (293FT-STAT5A)
T1 sequence (P42229 1-794): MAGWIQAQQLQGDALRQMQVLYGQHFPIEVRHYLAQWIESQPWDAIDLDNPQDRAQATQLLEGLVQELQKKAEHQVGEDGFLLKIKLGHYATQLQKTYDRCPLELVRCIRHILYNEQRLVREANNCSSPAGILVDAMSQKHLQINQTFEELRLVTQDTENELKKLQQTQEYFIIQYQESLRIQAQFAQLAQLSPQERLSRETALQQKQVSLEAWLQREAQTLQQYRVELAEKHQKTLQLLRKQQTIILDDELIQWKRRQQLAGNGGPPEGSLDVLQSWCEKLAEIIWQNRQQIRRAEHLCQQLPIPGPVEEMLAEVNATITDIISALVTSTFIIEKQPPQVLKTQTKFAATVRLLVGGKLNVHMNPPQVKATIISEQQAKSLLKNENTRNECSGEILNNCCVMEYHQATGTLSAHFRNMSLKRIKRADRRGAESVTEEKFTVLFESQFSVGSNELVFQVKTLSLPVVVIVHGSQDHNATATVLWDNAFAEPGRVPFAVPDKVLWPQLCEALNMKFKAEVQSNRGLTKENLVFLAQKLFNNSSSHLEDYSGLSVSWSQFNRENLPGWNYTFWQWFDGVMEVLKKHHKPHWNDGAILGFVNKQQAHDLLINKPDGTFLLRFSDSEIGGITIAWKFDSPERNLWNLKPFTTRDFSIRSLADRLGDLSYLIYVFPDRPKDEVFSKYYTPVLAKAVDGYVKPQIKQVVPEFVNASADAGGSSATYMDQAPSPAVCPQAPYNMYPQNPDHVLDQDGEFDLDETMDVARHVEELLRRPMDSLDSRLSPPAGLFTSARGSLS
Excerpt: To evaluate whether HODHBt and its analogs were directly binding to STAT5, a recently developed assay, cellular thermal shift assay (CETSA), was used. CETSA is based on the biophysical principle of ligand-induced changes in thermal stability of target proteins. As detailed in Molina & Nordlund, ANNU RE[…]. 2016; 56:141-61, the disclosure of which is hereby incorporated by reference in its entirety, the CETSA assay has been extensively used to identify drug targets using lysates, cells and tissues (FIG. 7A). After heating at different temperatures, the soluble fractions are analyzed for changes in the levels of the target protein (FIG. 7B). Binding of the compound can change the temperature at which the protein is denaturalized (FIG. 7C) leading to a change in the thermal melting curve (FIG. 7D).
First, it was addressed whether HODHBt induced a thermal shift of STAT5 using cell lysates from 293FT-STAT5A. In this assay, high drug concentrations were used to perform CETSA in cell lysates (10,000-20,000 times the IC50). […] Briefly, cell lysates were incubated with either DMSO or HODHBt for 30 minutes at 25° C. After incubation, lysates were heated from 40° C. to 75° C. in 5 degrees intervals and the insoluble fractions were eliminated by centrifugation. […]

CD4 T cells = assay: Expansion of activated CD4 T cells with IL-2; assay type: cell-based, human; details: activated in vitro, IL-2, vs DMSO
Excerpt: For these tests, human CD4 and CD8 T cells were activated in vitro and expanded with interleukin-2 (IL-2) in the presence of DMSO (control vehicle) or HODHBt.

STAT5, STAT1, STAT3 = assay: Western blot of phosphorylated STATs in CD8 T cells; assay type: cell-based, human
Experimental: To address whether SUMOylation controls STAT activation in human CD8 T cells, polyclonally activated CD8 T cells were cultured with IL-2 in the presence or absence of HODHBt and levels of phosphorylated STATs were measured by Western blot. […] Proliferation of CD8 T cells is dependent on the activation and phosphorylation of STAT5.
In general, samples are prepared and loaded on to a gel and during the electrophoresis the negatively charged proteins move toward the positively charged anode. In order to further analyze the proteins, they are transferred onto a membrane in a procedure called blotting. After the transfer, the membrane is blocked in order to prevent unwanted membrane-protein interaction in the following steps. To visualize the protein of interest the membrane is commonly first probed using a primary protein-specific antibody followed by a labeled secondary antibody used for detection. An image is taken of the membrane and the result is analyzed.

NK cells = assay: In vitro expansion of NK cells with IL-2; assay type: cell-based, human; details: 500 IU/ml of IL-2, two HIV-negative donors
Excerpt: (§1) As for CD8 T cells, STATS play an important role in the expansion of NK cells. As such, it was hypothesized that inhibiting STAT SUMOylation may enhance the expansion of NK cells. This has important implications for adoptive cell immunotherapies as NK cells are increasingly becoming an attractive alternative to T cell therapies. In order to address whether inhibiting STAT SUMOylation may enhance NK proliferation in vitro, NK cells were isolated from two human HIV-negative donors and expanded using Miltenyi Biotec NK MACS Medium in the presence of 500 IU/ml of IL-2 and in the presence or absence of HODHBt.

[2] = tested on: HIV-infected cultured TCM cells; assay: Killing of HIV-infected cultured TCM cells by expanded autologous NK cells; assay type: cell-based, human; details: autologous NK cells expanded with IL-2 and HODHBt
Excerpt: as §1

SMILES: O=c1c2ccccc2nnn1O [HODHBt]
- STAT5 transcriptional activity relative to HODHBt [1]: the compound with the strongest activity
- EC50 ([1]; read-out: EC50 in the primary cell screening method): ~63 µM
- high molecular band generated (size of STAT5 dimer) (STAT5; lysates incubated with HODHBt, Western blot): approximately 188 kDa
- thermal melting curve of STAT5 (STAT5; lysates, 5 mM, 30 minutes at 25° C, heated 40-75° C): drastically changed the thermal melting curve of STAT5, promoting its degradation
- expansion of CD4 T cells (CD4 T cells): increased expansion
- phosphorylation of STAT1 and STAT3 in CD8 T cells (STAT5, STAT1, STAT3; HODHBt alone): increased the phosphorylation levels of both STAT1 and STAT3
- phosphorylation of STAT5 in CD8 T cells (STAT5, STAT1, STAT3; after IL-2 treatment): increased the levels of phosphorylation of STAT5 after IL-2 treatment
- phosphorylation of STAT1 and STAT3 in CD8 T cells (STAT5, STAT1, STAT3; with IL-2, vs IL-2): enhanced those induced by IL-2
- NK cell expansion (NK cells): enhanced NK cell expansion in vitro
- killing of HIV-infected cultured TCM cells by NK cells expanded with compound [2]: as well as HIV-infected cultured TCM cells from the same donor
